The values that follow are results of earlier work, collected in patent publication US12691099B2, “Oral formulations of Edaravone and method of manufacturing thereof” (BDR PHARMACEUTICALS INTERNATIONAL PRIVATE LIMITED, priority 2019, dated 2026).

A word on the solubility: it is the dissolved amount per volume that the medium holds.

Each structure is given as a SMILES string. Values after ≈ are worked out from the molar mass of the structure shown.

The conditions of series [1]: poor solubility in water and lower lipid permeability.

For `CC1=NN(c2ccccc2)C(=O)C1` [Edaravone, 3-methyl-1-phenyl-2-pyrazolin-5-one], the solubility is 25 µg/mL (≈ 144 µM). Moreover, in series [1], the BCS class result is “Class IV”.
